Measured values reported in patent US12246071B2, “Brain-penetrating ligand and drug carrier” (priority 2018, dated 2025).

Experiments:
SH-SY5Y cells [1] = test: Uptake into SH-SY5Y cells after permeation of the hCMEC/D3 monolayer; assay type: cell-based, human; conditions: HiLyte-labeled, 1 mM on upper side, 60 minutes
Description: hCMEC/D3 cells were seeded in the upper component of a transwell at 2.0×10^5 cells/well, incubated at 37° C. for 5 days, then, the transepithelial electrical resistance (TEER) was measured. SH-SY5Y cells were seeded at 1.0×10^5 cells/well in a 6-well plate, which is a lower component, and incubated at 37° C. for 1 day. […] Over time (upper side 0, 60 minutes; lower side 0, 5, 15, 30, and 60 minutes), the medium was sampled, the fluorescence intensity was measured using I-control (M1000) (TECAN), and the permeation amount was measured. Similar to Example 4, the permeation coefficient Papp (cm/sec) was calculated as follows.

SH-SY5Y cells [2] = test: Intracellular accumulation of amyloid β; assay type: cell-based, human; conditions: 1 mM, 24 hours, after U18666A 7.5 μM and HiLyte488-Aβ 250 nM
Description: Using SH-SY5Y cells, the amyloid β accumulation in the cells was measured. SH-SY5Y cells were seeded at 1.0×10^4 cells/glass dish and incubated at 37° C. for 24 hours. Then, washed with PBS, 150 μL of a medium containing U18666A (7.5 μM) and HiLyte488-Aβ (purchased from AnaSpec) (250 nM) was added and incubated at 37° C. for 24 hours. After washing with PBS, 200 μL of a medium containing HP-β-CyD (DS4.4.1 mM) or Lac-HP-β-CyD (DSL3.0, 1 mM) was added, and the mixture was incubated at 37° C. for 24 hours. After washing with PBS, 200 μL of a medium supplemented with Lysostacker (registered trademark) (final concentration: 100 nM) was added. After incubating for 30 minutes, it was fixed with 4% paraformaldehyde and the FIlipin solution was added.

SH-SY5Y cells [3] = test: Cholesterol leakage from U18666A-treated cells; assay type: cell-based, human; conditions: 1.0, 10.0 and 20.0 mM, 2 hours, 37° C., after U18666A 7.5 μM
Description: SH-SY5Y cells (1.0×10^5 cells), which are human neuroblasts, were seeded in a 24-well plate, incubated at 37° C. for 24 hours, then, washed with PBS, and a medium supplemented with U18666A (7.5 μM) was added, and it was incubated for an additional 24 hours. Then, washed with PBS, and 150 μL of a medium (HBSS, FBS (−)) containing HP-3-CyD (DS4.4) (1.0, 10.0 and 20.0 mM) or Lac-HP-β-CyD (DSL3.0) (1.0, 10.0 and 20.0 mM) was added. After incubating at 37° C. for 2 hours, the supernatant was collected and centrifuged (10,000). The cholesterol concentration and phospholipid concentration in the obtained supernatant were measured with cholesterol E-Test wako and phospholipid C-Test wako.

hCMEC/D3 cells = test: Uptake of HiLyte-labeled Lac-HP-β-CyD into brain capillary endothelial cells (confocal microscope); assay type: cell-based, human; conditions: 1 mM, 1 hour, 37° C.
Description: Lac-HP-β-CyD (DSL3.0) and the control HP-β-CyD […] were labeled with HiLyte fluorescent dye according to the manufacturer's manual. The following experiments were carried out using these.
Using hCMEC/D3 cells, which are human brain capillary endothelial cells, the uptake of Lac-HP-β-CyD into cells was confirmed. hCMEC/D3 cells were seeded at 1.0×10^4 cells/glass dish and incubated at 37° C. for 24 hours. Then, it was washed with PBS, and 150 μL of a medium containing HiLyte-HP-β-CyD (DS4.4, 1 mM) or HiLyte-Lac-HP-β-CyD (DSL3.0, 1 mM) was added, and incubated at 37° C. for 1 hour. After washing with PBS, it was fixed with 4% paraformaldehyde.

[4] = Organ distribution of fluorescently labeled Lac-HP-β-CyD after intravenous injection (IVIS); assay type: in vivo, BALB/c mouse; conditions: HiLyte-labeled, 10 mg/kg intravenous, BALB/c mice, 10 minutes
Description: BALB/c mice (8 weeks old, male, 20 g) were intravenously injected with HiLyte-HP-β-CyD (DS4.4) or HiLyte-Lac-HP-β-CyD (DSL3.0) at a dose of 10 mg/kg. After 10 minutes, the mice were euthanized, perfused with PBS and each organ was collected. Each organ was observed by IVIS.

cholesterol leakage into supernatant (SH-SY5Y cells [3]): less cholesterol leakage than HP-β-CyD
Substance: lactose-modified hydroxypropyl-β-cyclodextrin [Lac-HP-β-CyD]
uptake into SH-SY5Y cells after BBB permeation (SH-SY5Y cells [1]): significantly taken up into SH-SY5Y cells after BBB permeation as compared with HP-β-CyD
Aβ clearance / intracellular amyloid β accumulation (SH-SY5Y cells [2]): normalized the Aβ clearance by reducing the amount of cholesterol in cells
uptake into cells (hCMEC/D3 cells): significantly taken up into the cells as compared with HP-β-CyD
penetration to the brain (fluorescence intensity of organ) [4]: significantly penetrated to the brain as compared with HP-β-CyD
